One series has as its target T1, human RNaseH1 (Homo sapiens, UniProt O60930).
T1 construct: made in house; host or cells: E. coli
T1 sequence (O60930 1-286): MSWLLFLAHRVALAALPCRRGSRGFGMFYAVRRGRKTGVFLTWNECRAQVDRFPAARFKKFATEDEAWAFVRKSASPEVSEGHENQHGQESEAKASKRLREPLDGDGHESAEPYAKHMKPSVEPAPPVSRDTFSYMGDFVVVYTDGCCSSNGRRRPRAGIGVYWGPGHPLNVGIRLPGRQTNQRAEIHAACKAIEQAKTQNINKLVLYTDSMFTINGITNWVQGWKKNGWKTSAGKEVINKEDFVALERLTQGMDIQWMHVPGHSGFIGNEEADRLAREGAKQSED
Nature of the series: Oligonucleotide-directed RNA cleavage assay, human RNaseH1. The format is biochemical. The conditions noted are these: for IC50: Table 1, quantitative values. From the text:
RNaseH expression and purification.
Oligonucleotide-directed RNA cleavage assay.

The test system of a further series is HBV replication. Kind of series: HBV replication inhibition assay in HepDES19 cells (strand-preferential q-PCR). The conditions noted are these: Hepatitis B virus. The format is cell-based, Hepatitis B virus.
Series [1] deals with T2, HBV RNaseH (Hepatitis B virus genotype D subtype ayw, UniProt P03156). The conditions noted are these: for HBV RNaseH: Table 1, qualitative inhibition in biochemical assay; for Inhibition of HBV RNaseH, Oligonucleotide directed cleavage assay: Table 3, compounds at 100, 60 and 20 μM, compounds 1-91 and 138-140 previously reported (Cai et al., 2014); for inhibition of RNA cleavage by HBV RNaseH: compounds at 100, 60 and 20 μM.

The next series concerns HSV-1. Nature of the series: HSV-1 replication inhibition assay in Vero cells. The conditions noted are these: read-out: HSV-1 suppression (log10 at 5 μM), class symbol. It is filed as cell-based, herpes simplex virus 1.
The next series has as its system HIV replication. The conditions noted are these: literature values (Billamboz et al., 2011b; Suchaud et al., 2014); cited from earlier work.
Series [2] has as its target T2, HBV RNaseH. Nature of the series: Molecular beacon RNaseH assay. The conditions noted are these: for inhibition in the molecular beacon assay: 2.1 μg purified HBV RNaseH; for Inhibition of HBV RNaseH, Molecular Beacon cleavage assay: Table 3, 0 to 500 μM.
Procedure: In this assay, a hairpin DNA oligonucleotide labeled with fluorescein on one end and a quencher on the other is held in a linear conformation by annealing to a complementary RNA; cleavage of the RNA causes the DNA to fold into a hairpin, suppressing fluorescence (FIG. 8A).
The substrate is a hairpin DNA oligonucleotide with a 5′ fluorescein reporter and a 3′ black hole quencher annealed to a complementary RNA oligonucleotide. The reaction was initiated by adding 5 mM Mg^++, and fluorescence was monitored at 37° C. with a Synergy 4 96-well plate reader. Inhibition was qualitatively determined as a dose-dependent reduction in the rate of substrate degradation.
Series [3] can be described thus: Lactate dehydrogenase (LDH) release cytotoxicity assay. It is filed as cell-based. The conditions noted are these: human, HepDES19 cells, read-out: Toxicity in HepDES19, LDH (CC50). How it is done: (§1) To further evaluate potential cytotoxicity of these hits, the effect of the compounds was determined for the uptake of neutral red (NR) by the lysosomes and lactate dehydrogenase (LDH) release into the supernatant due to cell membrane permeability. […] Overall, the TI values in Table 3 and FIG. 4 indicate that cytotoxicity was not the cause of antiviral efficacy, although it may have contributed to the apparent efficacy for #84, 85, 90, and 91, which all have TI values below 5.

A short description of a further series: MTT cytotoxicity assay. The note with it: human; Table 2, HepDES19 cells. It is filed as cell-based. As to the method: MTT cytotoxicity assays. 1.0×10^4 HepDES19 cells per well were seeded in 96-well plates and incubated in DMEM with 10% FBS plus 1% P/S, 1% non-essential amino acids, and 1% glutamine. Compounds were diluted in medium to the indicated concentrations plus 1% DMSO and added to cells 24 hours after plating, with each concentration tested in triplicate. Medium containing the compound was refreshed daily for the next two days. Thiazolyl blue tetrazolium bromide (MTT, Sigma-Aldrich) was added to 0.25 mg/mL, the cultures were incubated for 60 minutes, metabolites were solubilized in acidic isopropanol, and absorbance was read at 570 nm.
On the technique in general: Tetrazolium assays rely on reduction of a dye to a coloured formazan, in cell work by metabolically active cells.

A short description of series [4]: MTS cytotoxicity assay (CellTiter 96). The note with it: human. As to the method: (§2) HepDES19 cells were seeded at 1×10^4 cells per well in a 96 well plate in the absence of tetracycline. The test compounds were applied in triplicate to the cells 48 hours later and the cells were incubated for 72 hours. Cell viability was measured using the CellTiter 96 Aqueous Non-Radioactive Cell Proliferation Assay (Promega). [3-(4,5-dimethylthiazol-2-yl)-5-(3-carboxymethoxyphenyl)-2-(4-sulfophenyl)-2H-tetrazolium, inner salt] (MTS) and phenazine methosulfate (PMS) solution at 2 mg/mL MTS and 0.043 mg/mL PMS were added to the medium, the cells were incubated for two hours at 37° C., and absorbance was measured at 490 nm. […] Neutral red was added to the media at a final concentration of 40 μg/mL. Cells were washed with PBS and incubated with neutral red medium for two hours at 37° C. The neutral red medium was removed and the cells were washed with PBS. […] Lactate dehydrogenase (LDH) release was measured using the LDH-cytotoxicity colorimetric assay kit (BioVision). Cells were lysed with 1% Triton-X to provide the high control and DMSO vehicle treatment was the low control. Supernatants were collected and transferred to a fresh 96 well plate, and LDH reaction mixture containing the catalyst and dye solution was added. The reaction was incubated for 15-20 minutes at room temperature in a dark box and absorbance was measured at 490 nm. Percent cytotoxicity was calculated as [(test sample−low control)/([…])]×100.

Another series relates to HepDES19 cells. Kind of series: MTS cytotoxicity assay (CellTiter 96). The note with it: CC50 by MTS assay over EC50. How it is done:
as §2

A short description of series [5]: Neutral red (NR) cytotoxicity assay. The format is cell-based. The note with it: human, HepDES19 cells, read-out: Toxicity in HepDES19, NR (CC50). As to the method:
as §1

Series [6] can be described thus: Stability in mouse liver microsomes. It is filed as in vitro ADME. Background: Liver microsomes are a subcellular fraction often used to study metabolism.
For a further series, the system named is HBV infections. The conditions noted are these: cited from earlier work.
Where [7] appears, read: HepDES19, read-out: HBV replication inhibition (EC50, μm).
Where [8] appears, read: HepDES19 cells, read-out: EC50, HBV replication.
Setting [9] is: Table 2, HepDES19 cells, read-out: EC50.
The mark [10] stands for this setting: Human alphaherpesvirus 1, 24 h, 5 μM, Vero cells.

Where two headings read alike, the source gives them in different places.

Usually IC50 stands for the midpoint of a concentration-inhibition curve. Read a high IC50 as weaker potency. One may read the EC50 as the midpoint of the concentration-response curve. The term CC50 denotes the concentration giving 50% cytotoxicity.

T2 sequence (P03156 671-832): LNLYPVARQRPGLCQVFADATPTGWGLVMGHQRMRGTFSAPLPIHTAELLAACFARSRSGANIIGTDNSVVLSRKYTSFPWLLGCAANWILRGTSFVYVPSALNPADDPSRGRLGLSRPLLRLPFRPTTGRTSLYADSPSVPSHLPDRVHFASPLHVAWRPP

In the case of `COC(=O)C1C(=O)N(O)C(=O)c2ccccc21` (centres unmarked) [Compound 81], on human RNaseH1, inhibition was half-maximal at 4.9 µM (IC50). Besides, in the series on HBV replication (setting [7]), the EC50 stood at 4400 ± 3000 nM. Moreover, the EC50 in the series with HBV replication (setting [8]) amounted to 4400 nM. For the same compound, the EC50 with HBV replication (setting [9]) was found to be 4000 nM. On HBV RNaseH [1], the “HBV RNaseH” value is recorded as “+/−”; the “Inhibition of HBV RNaseH, Oligonucleotide directed cleavage assay” value is “− (No inhibition detected at 100 μM)”; the “inhibition of RNA cleavage by HBV RNaseH” value was “negative”. The log reduction at 5 µM in the series on HSV-1 (Human alphaherpesvirus 1, Vero, 24 h) is < 1. Besides, the EC50 with HIV replication is 13.4 µM. Further, on HBV RNaseH [2], the “inhibition in the molecular beacon assay” value was “inhibited” and the “Inhibition of HBV RNaseH, Molecular Beacon cleavage assay” value is “+ (Dose-dependent inhibition at ≤500 μM)”.

As for `O=C(Nc1ccc2c(c1)C(=O)N(O)C(=O)C2C(=O)NCc1ccc(F)cc1)c1ccccc1` (centres unmarked) [Compound 86], the IC50 at human RNaseH1 was found to be 4 µM. In addition, the EC50 in the series on HBV replication (setting [7]) is 1400 ± 300 nM; with HBV replication (setting [8]), 1400 nM; in the series with HBV replication (setting [9]), 1400 nM; in the series on HIV replication it was > 21 µM. For the same compound, the “HBV RNaseH” value at HBV RNaseH [1] is reported as “+/−”. Also, the “Inhibition of HBV RNaseH, Oligonucleotide directed cleavage assay” value at HBV RNaseH [1] is recorded as “− (No inhibition detected at 100 μM)”. Further, the figures for the CC50 at 72 h in [3], in series [4] and in [5] were > 100 µM, 99 ± 2 µM and 52 ± 11 µM, respectively. Further, the CC50 in the series “MTT cytotoxicity assay” is > 100 µM. The “TI (therapeutic index, CC50(MTS)/EC50)” value in the series on HepDES19 cells is listed as 71. The log reduction at 5 µM in the series on HSV-1 (setting [10]) was < 1. In addition, the “Inhibition of HBV RNaseH, Molecular Beacon cleavage assay” value at HBV RNaseH [2] is “− (No inhibition detected at 500 μM)”.

Take `C/C(=N\c1ccccc1NO)c1c(C)cc(=O)n(O)c1O` [Compound 208]: at human RNaseH1 (compounds at 100, 60 and 20 μM), the “inhibition of huRNaseH1” value is on record as “did not inhibit the huRNaseH1 at 100 μM”. For the same compound, the EC50 with HBV replication (HepDES19, read-out: EC50, HBV replication) is 690 nM; with HBV replication (setting [7]) it was 690 ± 200 nM. For the same compound, the “Inhibition of HBV RNaseH, Oligonucleotide directed cleavage assay” value at HBV RNaseH [1] is “+ (Dose-dependent inhibition at ≤100 μM)”. In addition, the “inhibition of RNA cleavage by HBV RNaseH” value against HBV RNaseH [1] is “inhibited RNA cleavage by the HBV RNaseH”. Moreover, in [6], the “stability in mouse liver microsomes” value is “stable”. The CC50 at 72 h in series [3] worked out at 12 ± 0.1 µM; in [4], 15 ± 7 µM; in series [5], 13 ± 1 µM. Also, the log reduction at 5 µM in the series with HSV-1 (setting [10]) was < 1. Moreover, on HBV RNaseH [2], the “inhibition in the molecular beacon assay” value was “inhibited”. On HBV RNaseH [2], the “Inhibition of HBV RNaseH, Molecular Beacon cleavage assay” value was “+ (Dose-dependent inhibition at ≤500 μM)”.

On to Interferon α, for which the “patients with sustained clinical improvement” value with HBV infections is given as 20-30%.

Values taken from patent US20190070165A1, “N-HYDROXYISOQUINOLINEDIONE INHIBITORS OF HBV REPLICATION” (Saint Louis University, priority 2016, published 2019).
